Reference: patent US20240368191A1, “HETEROCYCLIC COMPOUNDS AND USES THEREOF” (Kumquat Biosciences Inc., priority 2021, published 2024)

What was measured:
in vitro = details: microsomes, pH 7.4
[1] = Metabolic (microsomal) stability assay; details: pooled liver microsomes, pH 7.4
[2] = target: T1, KRAS G12D 1-169 (His-tagged, GDP-loaded) (Homo sapiens, UniProt P01116, G12D); test: Covalent modification of KRAS protein by intact-protein LC-MS; type: binding; details: comparable or same conditions as K-Ras G12S
T1 construct: His -tagged GDP-loaded G12D 1-169; made in house; host or cells: E. coli, e.g. BL21 (DE3)
T1 sequence (P01116 1-169 isoform P01116-2 G12D): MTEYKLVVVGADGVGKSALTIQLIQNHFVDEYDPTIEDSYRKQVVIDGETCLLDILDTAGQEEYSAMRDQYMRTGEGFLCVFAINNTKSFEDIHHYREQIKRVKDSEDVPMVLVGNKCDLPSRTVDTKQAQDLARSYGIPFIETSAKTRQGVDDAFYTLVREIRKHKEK
Summary of the method: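 Percent modification is derived from deconvoluted intact-protein LC-ESI-MS peak intensities of adducted versus unmodified KRAS. GDP-loaded His-tagged KRAS 1-169 (~2 μM, HEPES buffer at physiological conditions) was exposed to compound for 24 hrs at room temperature, then quenched with formic acid before C4 reversed-phase separation.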

## N#Cc1c(N)sc2c(F)ccc(-c3c(Cl)cc4c(N5CC6CCC(C5)N6C(=O)n5ccnc5)nc(OC[C@@]56CCCN5C[C@H](F)C6)nc4c3F)c12 [Compound A105, 4-(4-(8-(1H-imidazole-1-carbonyl)-3,8-diazabicyclo-[3.2.1]octan-3-yl)-6-chloro-8-fluoro-2-(((2R,7aS)-2-fluoro-tetrahydro-1H-pyrrolizin-7a(5H)-yl)methoxy)quinazolin-7-yl)-2-amino-7-fluorobenzo-[b]thiophene-3-carbonitrile]
In vitro
  half-life at 0.5 μM: > 10 min

## N#Cc1c(N)sc2c(F)ccc(-c3c(Cl)cc4c(N5CC6CCC(C5)N6C(=O)Nc5ncccn5)nc(OC[C@@]56CCCN5C[C@H](F)C6)nc4c3F)c12 [Compound A215, 3-(7-(2-amino-3-cyano-7-fluorobenzo[b]thiophen-4-yl)-6-chloro-8-fluoro-2-(((2R,7aS)-2-fluorotetrahydro-1H-pyrrolizin-7a(5H)-yl)methoxy)quinazolin-4-yl)-N-(pyrimidin-2-yl)-3,8-diazabicyclo[3.2.1]octane-8-carboxamide]
In vitro
  half-life at 0.5 μM: > 10 min

## C#Cc1c(F)ccc2cc(O)cc(-c3ncc4c(N5CC6CCC(C5)N6C(=O)n5cncn5)nc(OC[C@@]56CCCN5C[C@H](F)C6)nc4c3F)c12 [Compound A234, (3-(7-(8-ethynyl-7-fluoro-3-hydroxynaphthalen-1-yl)-8-fluoro-2-(((2R,7aS)-2-fluoro-tetrahydro-1H-pyrrolizin-7a(5H)-yl)methoxy)pyrido[4,3-d]pyrimidin-4-yl)-3,8-diaza-bicyclo[3.2.1]octan-8-yl)(1H-1,2,4-triazol-1-yl)methanone]
In vitro
  half-life at 0.5 μM: > 10 min

## N#Cc1c(N)sc2c(F)ccc(-c3ncc4c(N5CC6CCC(C5)N6C(=O)n5cncn5)nc(OC[C@@]56CCCN5C[C@H](F)C6)nc4c3F)c12 [Compound A206, 4-(4-(8-(1H-1,2,4-triazole-1-carbonyl)-3,8-diazabicyclo-[3.2.1]octan-3-yl)-8-fluoro-2-(((2R,7aS)-2-fluorotetrahydro-1H-pyrrolizin-7a(5H)-yl)meth-oxy)pyrido[4,3-d]pyrimidin-7-yl)-2-amino-7-fluorobenzo[b]-thiophene-3-carbonitrile]
In vitro
  half-life at 0.5 μM: > 10 min

## C#Cc1c(F)ccc2cc(O)cc(-c3ncc4c(N5C6COCC5CN(C(=O)n5cc(C#N)cn5)C6)nc(OC[C@@]56CCCN5C[C@H](F)C6)nc4c3F)c12 [Compound A226, 1-(9-(7-(8-ethynyl-7-fluoro-3-hydroxynaphthalen-1-yl)-8-fluoro-2-(((2R,7aS)-2-fluoro-tetrahydro-1H-pyrrolizin-7a(5H)-yl)methoxy)pyrido[4,3-d]pyrimidin-4-yl)-3-oxa-7,9-diazabicyclo[3.3.1]nonane-7-carbonyl)-1H-pyrazole-4-carbo-nitrile]
In vitro
  half-life at 0.5 μM: > 10 min

## Cc1ncn(C(=O)N2CC3(CCCN(c4nc(OC[C@@]56CCCN5C[C@H](F)C6)nc5c(F)c(-c6ccc(F)c7sc(N)c(C#N)c67)c(Cl)cc45)C3)C2)n1 [Compound A102, 2-amino-4-(6-chloro-8-fluoro-2-(((2R,7aS)-2-fluorotetrahydro-1H-pyrrolizin-7a(5H)-yl)meth-oxy)-4-(2-(3-methyl-1H-1,2,4-triazole-1-carbonyl)-2,6-diaza-spiro[3.5]nonan-6-yl)quinazo-lin-7-yl)-7-fluorobenzo[b]-thiophene-3-carbonitrile]
[1]
  half-life at 0.5 μM: > 10 min
[2]
  covalent labeling of K-Ras G12D: essentially no detectable labeling

## C#Cc1c(F)ccc2cc(O)cc(-c3ncc4c(N5CC6CCC(C5)N6C(=O)Nc5ncccn5)nc(OC[C@@]56CCCN5C[C@H](F)C6)nc4c3F)c12 [Compound A131, 3-(7-(8-ethynyl-7-fluoro-3-hydroxynaphthalen-1-yl)-8-fluoro-2-(((2R,7aS)-2-fluoro-tetrahydro-1H-pyrrolizin-7a(5H)-yl)methoxy)pyrido[4,3-d]pyrimidin-4-yl)-N-(pyrimidin-2-yl)-3,8-diazabicyclo[3.2.1]-octane-8-carboxamide]
In vitro
  half-life at 0.5 μM: > 10 min

## C#Cc1c(F)ccc2cc(O)cc(-c3ncc4c(N5CC6CCC(C5)N6C(=O)n5cc(C#N)cn5)nc(OC[C@@]56CCCN5C[C@H](F)C6)nc4c3F)c12 [Compound A143, 1-(3-(7-(8-ethynyl-7-fluoro-3-hydroxynaphthalen-1-yl)-8-fluoro-2-(((2R,7aS)-2-fluoro-tetrahydro-1H-pyrrolizin-7a(5H)-yl)methoxy)pyrido[4,3-d]pyrimidin-4-yl)-3,8-diaza-bicyclo[3.2.1]octane-8-carbon-yl)-1H-pyrazole-4-carbonitrile]
In vitro
  half-life at 0.5 μM: > 10 min

## C#Cc1c(F)ccc2cc(O)cc(-c3ncc4c(N5CC6CCC(C5)N6C(=O)n5ccnc5)nc(OC[C@@]56CCCN5C[C@H](F)C6)nc4c3F)c12 [Compound A163, (3-(7-(8-ethynyl-7-fluoro-3-hydroxynaphthalen-1-yl)-8-fluoro-2-(((2R,7aS)-2-fluoro-tetrahydro-1H-pyrrolizin-7a(5H)-yl)methoxy)pyrido[4,3-d]pyrimidin-4-yl)-3,8-diaza-bicyclo[3.2.1]octan-8-yl)(1H-imidazol-1-yl)methanone]
In vitro
  half-life at 0.5 μM: > 10 min

## CN(C)C1CN(c2nc(N3CCOC4(CN(C(=O)n5cncn5)C4)C3)c3cc(Cl)c(-c4ccc(F)c5sc(N)c(C#N)c45)c(F)c3n2)C1 [Compound A256, 4-(4-(2-(1H-1,2,4-triazole-1-carbonyl)-5-oxa-2,8-diazaspiro[3.5]nonan-8-yl)-6-chloro-2-(3-(dimethylamino)azetidin-1-yl)-8-fluoroquinazolin-7-yl)-2-amino-7-fluorobenzo[b]thiophene-3-carbonitrile]
[1]
  half-life at 0.5 μM: > 10 min
[2]
  covalent labeling of K-Ras G12D: essentially no detectable labeling

## C[C@H](Oc1nc(N2CCCCC3(CN(C(=O)n4cncn4)C3)C2)c2cc(Cl)c(-c3ccc(F)c4sc(N)c(C#N)c34)c(F)c2n1)[C@@H]1CCCN1C [Compound A219, 4-(4-(2-(1H-1,2,4-triazole-1-carbonyl)-2,6-diazaspiro[3.6]-decan-6-yl)-6-chloro-8-fluoro-2-((S)-1-((S)-1-methylpyrrol-idin-2-yl)ethoxy)quinazolin-7-yl)-2-amino-7-fluorobenzo-[b]thiophene-3-carbonitrile]
[1]
  half-life at 0.5 μM: > 10 min
[2]
  covalent labeling of K-Ras G12D: essentially no detectable labeling

## Cc1ncn(C(=O)N2CC3(C2)CN(c2nc(OC[C@@]45CCCN4C[C@H](F)C5)nc4c(F)c(-c5ccc(F)c6sc(N)c(C#N)c56)c(Cl)cc24)CCO3)n1 [Compound A148, 2-amino-4-(6-chloro-8-fluoro-2-(((2R,7aS)-2-fluorotetrahydro-1H-pyrrolizin-7a(5H)-yl)-methoxy)-4-(2-(3-methyl-1H-1,2,4-triazole-1-carbonyl)-5-oxa-2,8-diazaspiro[3.5]nonan-8-yl)quinazolin-7-yl)-7-fluoro-benzo[b]thiophene-3-carbonitrile]
[1]
  half-life at 0.5 μM: > 10 min
[2]
  covalent labeling of K-Ras G12D: essentially no detectable labeling

## CC1(C)CN(c2nc(OC[C@@]34CCCN3C[C@H](F)C4)nc3c(F)c(-c4ccc(F)c5sc(N)c(C#N)c45)c(Cl)cc23)CC2(CN(C(=O)n3cncn3)C2)O1 [Compound A296, 2-amino-4-(6-chloro-4-(6,6-dimethyl-2-(1H-1,2,4-triazole-1-carbonyl)-5-oxa-2,8-diaza-spiro[3.5]nonan-8-yl)-8-fluoro-2-(((2R,7aS)-2-fluorotetrahydro-1H-pyrrolizin-7a(5H)-yl)meth-oxy)quinazolin-7-yl)-7-fluoro-benzo[b]thiophene-3-carbonitrile]
[1]
  half-life at 0.5 μM: > 10 min
[2]
  covalent labeling of K-Ras G12D: essentially no detectable labeling
